According to US6461997B1, “Triazole sulfones having herbicidal activity” (Monsanto Technology LLC, priority 1999, dated 2002):

How the values were obtained:
POROL (common purslane) = test: Pre-emergence herbicidal activity, warm season; assay type: in vivo, Portulaca oleracea; conditions: GR80 = lowest tested rate (300, 100, 30, 10 g/ha) with 80% or greater inhibition; approx. 14 days after treating; 30/21° C.
Summary of the method: (§1)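 Seeds sown in sterilised fertilised topsoil received surface-applied compound in 50:50 acetone/water, typically at 300, 100, 30 and 10 g/ha, then greenhouse-grown at 30/21° C (warm-season species) or 18/13° C (cool-season species). Percent inhibition versus untreated plants was scored at about 14 days, giving GR80; an asterisk marks activity short of 80% at the top rate.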

SINAR (wild mustard) = test: Pre-emergence herbicidal activity, cool season; assay type: in vivo, Sinapis arvensis; conditions: lowest tested rate with 80% or greater inhibition; rates 300, 100, 30, 10 g/ha; about 14 days
Summary of the method: as §1

[1] = system: VERPE (creeping speedwell); test: Pre-emergence herbicidal activity, cool season; assay type: in vivo, Veronica persicaria; conditions: lowest tested rate with 80% or greater inhibition; rates 300, 100, 30, 10 g/ha; about 14 days
Summary of the method: as §1

[2] = system: LAMPU (purple deadnettle); test: Pre-plant incorporated (PPI) herbicidal activity, cool season; assay type: in vivo, Lamium purpureum; conditions: for inhibition at 30 g/ha / inhibition at 100 g/ha / inhibition at 300 g/ha / inhibition at 900 g/ha: Lamium purpureum, read-out: Percent inhibition LAMPU; for inhibition at 30 g/ha / inhibition at 100 g/ha / inhibition at 300 g/ha / inhibition at 900 g/ha / Percent inhibition LAMPU: weed, PPI application; for PPI activity GR80, LAMPU: pre-plant incorporated, lowest tested rate with 80% or greater inhibition, about 14 days
Description: (§2) In another set of tests, the pre-plant incorporated (PPI) activity of compounds of this invention was evaluated on the same species as for the pre-emergence tests described above. In the PPI tests the following procedure, designed to simulate PPI application, was used.
(§3) A pre-prepared topsoil mixture (described above) was placed in a pot and compacted to a depth of 1.0 to 1.25 cm from the top of the pot. Seeds of each of several monocotyledonous and dicotyledonous annual plant species were placed on top of the soil. A sufficient quantity of soil to cover the seeds and level fill the pot was weighed into an open container. A known amount of the test compound was dissolved or suspended in an organic solvent and applied by spraying to this cover soil. The cover soil was thoroughly mixed to distribute the test compound throughout the cover soil, and was then applied as a cover layer over the seeds. Untreated soil was used as a cover layer for control pots. After treatment the plants were placed in a greenhouse where they received 0.64 cm of overhead irrigation. All subsequent watering consisted of a light overhead mist and/or subirrigation as needed for germination and growth. Tables 9 and 10 below relate to warm season plant species which were placed after pre-emergence treatment in a greenhouse with a 30/21° C. day/night temperature regime. Tables 11 and 12 below relates to cool season plant species placed after pre-emergence treatment in a greenhouse or growth chamber with an 18/13° C. day/night temperature regime. Only the compounds of Examples 1, 6, 8, 11, 13 and 15-20 were included in PPI tests.
(§4) Approximately 14 days after planting and treating, the plants were observed and herbicidal efficacy recorded as percent inhibition by comparison with untreated plants.

ALOMY (blackgrass) [3] = test: as above; assay type: in vivo, Alopecurus myosuroides; conditions: for inhibition at 30 g/ha / inhibition at 100 g/ha / inhibition at 300 g/ha / inhibition at 900 g/ha: Alopecurus myosuroides, read-out: Percent inhibition ALOMY; for inhibition at 30 g/ha / inhibition at 100 g/ha / inhibition at 300 g/ha / inhibition at 900 g/ha / Percent inhibition ALOMY: weed, PPI application; for PPI activity GR80, ALOMY: pre-plant incorporated, lowest tested rate with 80% or greater inhibition, about 14 days
Description: as §2, §3, §4

XANST (cocklebur) = test: Pre-plant incorporated (PPI) herbicidal activity, warm season; assay type: in vivo, Xanthium strumarium; conditions: PPI application; for inhibition at 10 g/ha / inhibition at 30 g/ha / inhibition at 100 g/ha / inhibition at 300 g/ha / inhibition at 900 g/ha: Xanthium strumarium, read-out: Percent inhibition XANST
Description: as §2, §3, §4

ALOMY (blackgrass) [4] = test: Post-emergence herbicidal activity, cool season; assay type: in vivo, Alopecurus myosuroides; conditions: abraded plants sprayed at 300, 100, 30 and 10 g/ha; about 14 days after treatment
Summary of the method: (§5)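 Read-out was GR80, derived from percent growth inhibition relative to abraded, unsprayed control plants, observed roughly 14 days after spraying. Compounds in 50:50 acetone/water were applied at 300, 100, 30 and 10 g/ha to seedlings 9 to 14 days old whose foliage had been sand-abraded to aid uptake.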

BROTE (downy brome) = test: Post-emergence herbicidal activity, cool season; assay type: in vivo, Bromus tectorum; conditions: abraded plants sprayed at 300, 100, 30 and 10 g/ha; about 14 days after treatment
Summary of the method: as §5

AVEFA (wild oat) = test: Post-emergence herbicidal activity, cool season; assay type: in vivo, Avena fatua; conditions: abraded plants sprayed at 300, 100, 30 and 10 g/ha; about 14 days after treatment
Summary of the method: as §5

[5] = system: AGSST (creeping bentgrass); test: Post-emergence herbicidal activity, cool season; assay type: in vivo, Agrostis stolonifera; conditions: abraded plants sprayed at 300, 100, 30 and 10 g/ha; about 14 days after treatment
Summary of the method: as §5

SMILES | Pre-emergence activity (GR80) POROL (POROL (common purslane)) [g/ha] | Pre-emergence activity GR80, SINAR (SINAR (wild mustard)) | Pre-emergence activity GR80, VERPE [1] [g/ha] | inhibition at 30 g/ha ([2]; 30 g/ha) [%] | inhibition at 100 g/ha ([2]; 100 g/ha) [%] | inhibition at 300 g/ha ([2]; 300 g/ha) [%] | inhibition at 900 g/ha ([2]; 900 g/ha) [%] | PPI activity GR80, LAMPU [2] [g/ha] | inhibition at 30 g/ha (ALOMY (blackgrass) [3]; 30 g/ha) [%] | inhibition at 100 g/ha (ALOMY (blackgrass) [3]; 100 g/ha) [%] | inhibition at 300 g/ha (ALOMY (blackgrass) [3]; 300 g/ha) [%] | inhibition at 900 g/ha (ALOMY (blackgrass) [3]; 900 g/ha) [%] | PPI activity GR80, ALOMY (ALOMY (blackgrass) [3]) [g/ha] | inhibition at 30 g/ha (XANST (cocklebur); 30 g/ha) [%] | inhibition at 100 g/ha (XANST (cocklebur); 100 g/ha) [%] | inhibition at 300 g/ha (XANST (cocklebur); 300 g/ha) [%] | Post-emergence activity GR80, ALOMY (ALOMY (blackgrass) [4]) | Post-emergence activity GR80, BROTE (BROTE (downy brome)) | Post-emergence activity GR80, AVEFA (AVEFA (wild oat)) | Post-emergence activity GR80, AGSST [5] | other results
CCN(CC)C(=O)n1cnc(S(=O)(=O)C(F)(F)Br)n1 [Example 1, 3-(bromodifluoromethylsulfonyl)-1-(N,N-diethylcarbamoyl)-1,2,4-triazole] | 100 | 100 g/ha | 100 | 80 | 70 | 95 | 100 | 100 | 80 | 99 | 100 | 100 | 100 | 0 | 0 | 0 | [empty] | [empty] | [empty] | [empty] | inhibition at 10 g/ha (XANST (cocklebur); 10 g/ha): 0%; inhibition at 900 g/ha (XANST (cocklebur); 900 g/ha): 0%
CCSC(F)(F)S(=O)(=O)c1ncn(C(=O)N(CC)CC)n1 [Example 8, 1-(N,N-diethylcarbamoyl)-3-[difluoro(ethylthio)methylsulfonyl]-1,2,4-triazole] | 300 | [empty] | 30 | 80 | 100 | 90 | 100 | 100 | 0 | 95 | 100 | 100 | 100 | 0 | 0 | 20 | [empty] | [empty] | [empty] | [empty] | inhibition at 900 g/ha (XANST (cocklebur); 900 g/ha): 50%
CCN(CC)C(=O)n1cnc(S(=O)(=O)C(F)(F)SC)n1 [Example 9] | 300 | 300 g/ha | 100 |  |  |  |  |  |  |  |  |  |  |  |  |  | [empty] | [empty] | [empty] | [empty] | Percent inhibition LAMPU ([2]; 30 g/ha): 0%; Percent inhibition LAMPU ([2]; 100 g/ha): 40%; Percent inhibition LAMPU ([2]; 300 g/ha): 100%; Percent inhibition LAMPU ([2]; 900 g/ha): 95%; Percent inhibition ALOMY (ALOMY (blackgrass) [3]; 30 g/ha): 40%; Percent inhibition ALOMY (ALOMY (blackgrass) [3]; 100 g/ha): 95%; Percent inhibition ALOMY (ALOMY (blackgrass) [3]; 300 g/ha): 100%; Percent inhibition ALOMY (ALOMY (blackgrass) [3]; 900 g/ha): 100%; Percent inhibition XANST (XANST (cocklebur); 30 g/ha): 0%; Percent inhibition XANST (XANST (cocklebur); 100 g/ha): 0%; Percent inhibition XANST (XANST (cocklebur); 300 g/ha): 30%; Percent inhibition XANST (XANST (cocklebur); 900 g/ha): 60%
CCN(CC)C(=O)n1cnc(S(=O)(=O)C(F)(F)SCCOC)n1 [Example 13] |  | [empty] | 300 |  |  |  |  | 30 |  |  |  |  | 100 |  |  |  | [empty] | [empty] | [empty] | [empty] | Percent inhibition LAMPU ([2]; 10 g/ha): 0%; Percent inhibition LAMPU ([2]; 100 g/ha): 0%; Percent inhibition LAMPU ([2]; 300 g/ha): 0%; Percent inhibition LAMPU ([2]; 900 g/ha): 90%; Percent inhibition ALOMY (ALOMY (blackgrass) [3]; 10 g/ha): 40%; Percent inhibition ALOMY (ALOMY (blackgrass) [3]; 30 g/ha): 90%; Percent inhibition ALOMY (ALOMY (blackgrass) [3]; 100 g/ha): 99%; Percent inhibition ALOMY (ALOMY (blackgrass) [3]; 300 g/ha): 99%; Percent inhibition ALOMY (ALOMY (blackgrass) [3]; 900 g/ha): 100%; Percent inhibition XANST (XANST (cocklebur); 10 g/ha): 0%; Percent inhibition XANST (XANST (cocklebur); 30 g/ha): 0%; Percent inhibition XANST (XANST (cocklebur); 100 g/ha): 0%; Percent inhibition XANST (XANST (cocklebur); 300 g/ha): 0%; Percent inhibition XANST (XANST (cocklebur); 900 g/ha): 30%
CCN(CC)C(=O)n1cnc(S(=O)(=O)C(F)(F)C(F)(F)SC)n1 [Example 14] | 300 | [empty] | 300 |  |  |  |  |  |  |  |  |  |  |  |  |  | [empty] | [empty] | [empty] | 300 g/ha | 
CCN(CC)C(=O)n1cnc(S(=O)(=O)C(F)F)n1 [Example 15, 1-(N,N-diethylcarbamoyl)-3-(difluoromethylsulfonyl)-1,2,4-triazole] | 100 |  |  |  |  |  |  | 300 |  |  |  |  | 100 | 0 | 0 | 0 | [empty] | [empty] | [empty] | [empty] | inhibition at 10 g/ha (XANST (cocklebur); 10 g/ha): 0%
